# According to patent US9278094B2, “Treatments for depression and other diseases with a low dose agent” (PharmoRx Therapeutics, Inc., priority 2013, dated 2016):
# Tests used:
# patients with depression = assay: Patient responses to low dose naltrexone treatment of depression (case reports)
# Experimental: Patient #1: A middle aged person suffered severe depression with recurrent major depressive episodes. […] The former pharmacologic regimen was otherwise unchanged.
# Patient #3: A patient presented with treatment-resistant depression. The patient was also diagnosed with Attention Deficit Disorder. The patient initially was treated with s-citalopram 15 mg, augmented by dextro-amphetamine.
# Patient #4: A patient weighing approximately 60 kg had suffered severe unremitting depression. […] Subsequently, the patient was prescribed 5 mg naltrexone daily with continuation of s-citalopram.
# They were being treated with buproprion XL 300 mg, augmented with melatonin 3 mg and N-acetyl-cysteine 1200 mg.
# Patient #6: A patient with multiple major depression episodes, anhedonia, apathy, low energy and poor sleep was being treated with duloxetine 60 mg and buproprion 75 mg, and mirtazpine 15 mg. […] They also called and e-mailed multiple times per day. They were being treated with Effexor XR 75 mg QHS, Xanax 0.5 mg, and Clonazepam 1.5 mg.
# The patient was then co-administered 1 mg daily of naltrexone with pramipexole.
# Patient #9: A middle-age person suffered severe depression with recurrent major depressive episodes and social anxiety. They were being treated with Adderall 10 mg, levothyroxine 50 mcg, and propranol 10 mg.
# [1] = test system: patients with breakthrough depression (BTD); assay: Clinical testing of low dose naltrexone treatment of depression (double-blind, placebo-controlled); assay type: in vivo, human
# [2] = low dose naltrexone (e.g. less than 10 mg); cited from earlier work
# [3] = test system: Restless Leg Syndrome (RLS); details: RLS treated with D2/D3 agonists pramipexole or ropinirole; Philips Respironics Actigraphy; see U.S. Ser. No. 12/603,235; cited from earlier work
# [4] = biological target: C-terminal pentapeptide of the scaffolding protein filamin A (Homo sapiens, UniProt P21333); details: Wang, Frankfurt, & Burns, 2008; cited from earlier work
# Sequence of C-terminal pentapeptide of the scaffolding protein filamin A (P21333 whole entry): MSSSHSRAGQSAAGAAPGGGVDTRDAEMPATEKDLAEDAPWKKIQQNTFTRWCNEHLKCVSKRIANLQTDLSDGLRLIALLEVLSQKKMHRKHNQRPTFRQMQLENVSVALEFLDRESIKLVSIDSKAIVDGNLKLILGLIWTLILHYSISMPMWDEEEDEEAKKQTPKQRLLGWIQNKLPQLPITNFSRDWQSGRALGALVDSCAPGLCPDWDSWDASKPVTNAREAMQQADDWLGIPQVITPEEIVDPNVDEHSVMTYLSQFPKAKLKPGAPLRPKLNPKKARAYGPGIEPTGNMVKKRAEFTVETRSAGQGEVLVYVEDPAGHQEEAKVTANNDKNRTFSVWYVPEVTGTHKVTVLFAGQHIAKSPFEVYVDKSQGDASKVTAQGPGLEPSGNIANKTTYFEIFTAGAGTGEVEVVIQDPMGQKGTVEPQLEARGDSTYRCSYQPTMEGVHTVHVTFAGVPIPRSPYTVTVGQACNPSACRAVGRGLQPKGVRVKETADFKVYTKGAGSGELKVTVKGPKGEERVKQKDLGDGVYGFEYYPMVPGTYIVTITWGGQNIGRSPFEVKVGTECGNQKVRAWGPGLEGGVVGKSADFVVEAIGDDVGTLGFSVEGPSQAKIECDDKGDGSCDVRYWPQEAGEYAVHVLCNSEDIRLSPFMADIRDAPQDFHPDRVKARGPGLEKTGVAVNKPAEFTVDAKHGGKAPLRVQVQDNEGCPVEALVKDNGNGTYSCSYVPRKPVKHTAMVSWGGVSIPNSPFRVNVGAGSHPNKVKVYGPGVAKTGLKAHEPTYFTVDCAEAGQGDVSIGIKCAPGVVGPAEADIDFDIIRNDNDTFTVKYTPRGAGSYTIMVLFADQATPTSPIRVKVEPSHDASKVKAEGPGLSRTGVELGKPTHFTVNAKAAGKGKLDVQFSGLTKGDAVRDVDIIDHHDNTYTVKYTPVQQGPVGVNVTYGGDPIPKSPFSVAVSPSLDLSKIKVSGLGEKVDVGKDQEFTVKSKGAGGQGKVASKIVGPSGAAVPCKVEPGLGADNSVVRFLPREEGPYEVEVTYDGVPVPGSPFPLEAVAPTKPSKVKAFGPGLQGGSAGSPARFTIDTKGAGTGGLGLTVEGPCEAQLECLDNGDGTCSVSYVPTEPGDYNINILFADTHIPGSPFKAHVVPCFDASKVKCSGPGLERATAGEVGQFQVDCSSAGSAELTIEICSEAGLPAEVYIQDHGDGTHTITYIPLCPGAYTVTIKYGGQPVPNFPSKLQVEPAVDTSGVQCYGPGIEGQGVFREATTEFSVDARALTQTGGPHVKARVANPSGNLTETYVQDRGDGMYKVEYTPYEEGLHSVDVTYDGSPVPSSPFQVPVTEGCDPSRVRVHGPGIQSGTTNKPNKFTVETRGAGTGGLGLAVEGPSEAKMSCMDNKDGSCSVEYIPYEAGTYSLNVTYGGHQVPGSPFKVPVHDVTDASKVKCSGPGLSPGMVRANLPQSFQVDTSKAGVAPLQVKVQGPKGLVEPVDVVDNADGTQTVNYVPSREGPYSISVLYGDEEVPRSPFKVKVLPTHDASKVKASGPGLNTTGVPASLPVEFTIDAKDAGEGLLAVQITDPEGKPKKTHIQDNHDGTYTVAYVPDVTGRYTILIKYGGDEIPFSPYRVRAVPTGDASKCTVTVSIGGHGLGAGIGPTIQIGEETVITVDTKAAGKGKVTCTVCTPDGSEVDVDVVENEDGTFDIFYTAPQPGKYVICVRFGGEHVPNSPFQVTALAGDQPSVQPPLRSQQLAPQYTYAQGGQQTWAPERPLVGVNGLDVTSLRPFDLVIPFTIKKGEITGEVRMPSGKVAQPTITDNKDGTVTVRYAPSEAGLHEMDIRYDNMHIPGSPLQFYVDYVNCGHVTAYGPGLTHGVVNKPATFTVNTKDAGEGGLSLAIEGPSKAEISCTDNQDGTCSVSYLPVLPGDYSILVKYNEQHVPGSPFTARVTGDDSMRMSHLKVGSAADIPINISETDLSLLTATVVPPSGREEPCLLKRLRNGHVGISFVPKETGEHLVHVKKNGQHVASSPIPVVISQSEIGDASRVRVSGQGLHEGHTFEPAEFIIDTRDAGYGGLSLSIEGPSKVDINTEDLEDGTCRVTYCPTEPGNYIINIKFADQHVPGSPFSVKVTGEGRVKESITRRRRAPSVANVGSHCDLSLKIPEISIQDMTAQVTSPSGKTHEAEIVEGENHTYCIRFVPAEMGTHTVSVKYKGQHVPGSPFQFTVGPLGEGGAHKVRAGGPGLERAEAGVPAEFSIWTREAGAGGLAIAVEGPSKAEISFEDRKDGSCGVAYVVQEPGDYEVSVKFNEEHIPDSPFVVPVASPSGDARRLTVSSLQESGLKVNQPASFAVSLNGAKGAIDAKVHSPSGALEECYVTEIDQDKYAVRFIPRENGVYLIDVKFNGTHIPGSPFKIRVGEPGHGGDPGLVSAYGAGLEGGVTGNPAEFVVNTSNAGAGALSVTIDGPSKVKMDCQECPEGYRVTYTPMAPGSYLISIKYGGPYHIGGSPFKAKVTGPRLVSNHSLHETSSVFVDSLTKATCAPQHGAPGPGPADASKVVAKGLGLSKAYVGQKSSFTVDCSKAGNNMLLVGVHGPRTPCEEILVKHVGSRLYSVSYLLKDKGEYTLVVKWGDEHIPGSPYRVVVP
structure (smiles),measurement,setting,value
"O=C1CCc2ccc(OCCCCN3CCN(c4cccc(Cl)c4Cl)CC3)cc2N1 [aripiprazole, 7-{4-[4-(2,3-Dichlorophenyl)piperazin-1-yl]butoxy}-3,4-dihydroquinolin-2(1H)-one]",earlier response of depression,"patients with depression; Patient #1, in the past, before naltrexone",transiently responded
"O=C1CC[C@@]2(O)[C@H]3Cc4ccc(O)c5c4[C@@]2(CCN3CC2CC2)[C@H]1O5 [naltrexone, 17-(cyclopropylmethyl)-4,5α-epoxy-3,14-dihydroxymorphinan-6-one]","rates of response on all outcome measures (HAM-D-17, HAM-D-28, MADRS-10, MADRS-15, CGI-S, CGI-I)","[1]; 1 mg bid, on antidepressant regimen containing a pro-dopaminergic agent, versus placebo, three weeks",higher rates of response
same,persistence of response,"[1]; 1 mg bid, patients on active drug followed six weeks",continued during the entire six week trial period
same,"Quality of Life, Enjoyment, and Satisfaction Questionnaire (Q-LES-Q) score",[1]; compared to placebo controls,greater improvement
same,Sheehan Disability Scale (SDS) score,[1]; compared to placebo controls,greater improvement
same,effects of opioid agonists,[2],enhance the effects of opioid agonists
same,control of periodic limb movements of sleep,[3],equivalent control of limb movements at one-half the prior dose of D2/D3 agonists
same,time to remission after initiating,"patients with depression; Patient #1, about 1 mg naltrexone daily",About one
same,duration of maintained remission,"patients with depression; Patient #1, adjunctive naltrexone 1 mg daily, continuing to present",more than 6 months
same,duration of maintained response,patients with depression; Patient #2,over 2 years
same,time to response,patients with depression; Patient #2,≤ 2 weeks
same,attention,"patients with depression; Patient #3, Attention Deficit Disorder, naltrexone 1 mg added, within days",much improved
same,adverse effects reported,"patients with depression; Patient #3, naltrexone 1 mg",no adverse effects
same,mood response,"patients with depression; Patient #3, naltrexone 1 mg added to s-citalopram 15 mg and dextro-amphetamine, within days",marked lifting of mood
same,duration of observation remaining euthymic,patients with depression; Patient #4,more than two
same,time to remission,patients with depression; Patient #5,two
same,duration of improvement,"patients with depression; Patient #5, and continuing",five
same,time to response,patients with depression; Patient #6,one
same,time to response,patients with depression; Patient #7,three
same,Kd,[4],< 5 pM
"CCCN[C@H]1CCc2nc(N)sc2C1 [pramipexole, (S)—N^6-propyl-4,5,6,7-tetrahydro-1,3-benzothiazole-2,6-diamine]",benefit in depression before naltrexone,"patients with depression; Patient #8, pramipexole without naltrexone",limited benefit
